Consider 2 molecules from patent US20260115189A1, “Combination Treatment Regimens - SMARCA2 Degrader With Taxane Anticancer Agent” (PRELUDE THERAPEUTICS INCORPORATED, priority 2023, published 2026).

Molecules are shown by their SMILES. “Also recorded” adds a separate entry of the source. Like-named read-outs stand apart in the source and are kept apart here.

In data set [1] the test system is SMARCA4-deficient A549 Lung Cancer Xenograft. The settings on record: for Tumor size: day 28, mean ± SEM. The protocol:
(§1) As used herein, tumor growth inhibition is calculated as follows: Mean % Inhibition=(mean(C)−mean(T))/mean(C)*100%, wherein C is the tumor volume in the control arm, and T is the tumor volume in the treatment arm.
The A549 tumor cells were maintained in vitro with Ham's F12K medium supplemented with 10% fetal bovine serum at 37° C. in an atmosphere of 5% CO2 in air. The cells in exponential growth phase were harvested and quantitated by cell counter before tumor inoculation. BALB/c nude female mice were inoculated subcutaneously in the right front flank region with A549 tumor cells (5×10^6) in 0.1 ml of PBS for tumor development. The randomization was performed when the mean tumor size reaches approximately 100-150 mm^3.
(§2) Tumor volumes at the end of studies were evaluated by the Mann-Whitney test (unpaired, nonparametric test). * P<0.05 […], *** P<0.001 versus vehicle are shown in graphs.

The subject of data set [2] is SMARCA4-mutated cancer cell lines. The data set is described as follows: Cell cycle arrest in SMARCA4-mutated cancer cell lines. In kind it is cell-based.
Data set [3] deals with NCI-H838 cells (SMARCA4-del NSCLC cell line). Kind of data set: Cell cycle analysis by flow cytometry (EdU / DRAQ5). The settings on record: NCI-H838, single agent, 48 hrs. In kind it is cell-based, human. The protocol:
Cells were seeded, incubated overnight, and dosed with drug treatments the next day. 2 hours before collection, cells were incubated with 10 μM EdU at 37 C then harvested using trypsin EDTA and washed with PBS/1% BSA. 4% PFA was added to the cells followed by a 15 minute incubation at RT. Cell were washed again with PBS/1% BSA and resuspended in 1X Click-iT® saponin-based permeabilization reagent for 15-minutes. Following centrifugation, supernatant was removed, and cells were incubated for 30 mins at RT, protected from light, in Click-iT® reaction cocktail, which was prepared according to manufacturer's instructions. Cells were then washed once with 0.01% Triton in PBS and resuspended in PBS. DRAQ5™ was added to cells at 1:200 dilution, incubated at room temperature, preventing exposure to light, for 30-60 min. Lastly, cells were washed with PBS/1% BSA and resuspended in 400 μl PBS/1% BSA. EdU with Pacific Blue™ azide and was detected using 405 nm excitation with a violet emission filter (450/50 nm) on a flow cytometer and analyzed using FlowJo software.
The combination effects of Formula (I) and docetaxel on the cell cycle was analyzed in a SMARCA4-deficient NSCLC lung cancer cell line by flow cytometry using DraQ5 and Click-iT EdU Pacific Blue. […]

Data set [4] deals with SMARCA4-mutated NCI-H838 tumor tissues. The data set is described as follows: RNA-sequencing and Gene Set Enrichment Analysis of treated tumor tissues. The data set is classed as in vivo. The settings on record: NCI-H838 tumor tissues treated for one week. The procedure: To elucidate the mechanism of action for the combination effects observed in vivo, RNA-sequencing was conducted on SMARCA4-mutated NCI-H838 tumor tissues treated with Formula (I) and/or docetaxel for one week.

The subject of data set [5] is SMARCA4-WT Calu-6 Lung Cancer Xenograft. Particulars: for Tumor size: day 21, mean ± SEM; for Tumor size / TGI (tumor growth inhibition vs vehicle): Formula (I) 100 mg/kg Q3D, docetaxel 5/10 mg/kg QW, combination 100 + 5/10 mg/kg Q3D + QW; for TGI (tumor growth inhibition vs vehicle): day 21. The protocol: as §1
The Calu-6 tumor cells were maintained in vitro with MEM medium supplemented with 10% fetal bovine serum at 37° C. in an atmosphere of 5% CO2 in air. The cells in exponential growth phase were harvested and quantitated by cell counter before tumor inoculation. BALB/c nude female mice were inoculated subcutaneously in the right front flank region with Calu-6 tumor cells (5×10^6) in 0.1 ml of PBS for tumor development. The randomization was performed when the mean tumor size reaches approximately 100-150 mm^3.
as §2

The test system of data set [6] is SMARCA4 wild-type cell lines. The data set is described as follows: Cell cycle arrest in SMARCA4 wild-type cell lines. The data set is classed as cell-based.
Data set [7] deals with SMARCA4-deficient NCI-H838 Lung Cancer Xenograft. Particulars: for Tumor size: day 20, mean ± SEM; for Tumor size / TGI (tumor growth inhibition vs vehicle): combination of both regimens; for TGI (tumor growth inhibition vs vehicle): day 20. The protocol: as §1
The NCI-H838-#5 tumor cells were maintained in vitro with RPMI1640 medium supplemented with 10% fetal bovine serum at 37° C. in an atmosphere of 5% CO2 in air. The cells in exponential growth phase were harvested and quantitated by cell counter before tumor inoculation. NOD-SCID female mice were inoculated subcutaneously in the right front flank region with NCI-H838-#5 tumor cells (5×10^6) in 0.1 ml of PBS mixed with Matrigel (1:1) for tumor development. The randomization was performed when the mean tumor size reaches approximately 100-150 mm^3.
as §2

Data set [8] deals with T1, SMARCA2 protein (Homo sapiens, UniProt P51531).
T1 construct: from tissue; host or cells: Frozen xenograft tumor tissue from human lung cancer cells (NCI-H838, A549 or Calu-6) grown subcutaneously in mice
Kind of data set: Semi-quantitative western blot of SMARCA2 in tumor tissue. In kind it is in vivo, mouse xenograft. The settings on record: for tumor SMARCA2 protein levels: repeat administration, Formula (I) 100-200 mg/kg s.c. Q3D, over a 24 h period, docetaxel 5-20 mg/kg i.v. QW; for tumor SMARCA2 protein levels relative to vehicle treated mice: tumors collected 4 hr and 24 hr post final dosing, Formula (I) 100 mg/kg s.c. Q3D, docetaxel 10/5 mg/kg i.v. QW. The protocol: SMARCA2 protein expression was measured by semi-quantitative western blot following extraction of protein from frozen tumor tissue. Up to 50 mg of frozen tumor tissue was measured and placed into 0.5 mL conical tubes containing 0.5 mm ceramic beads and 400 μL RIPA buffer containing 1× protease and phosphatase inhibitors (ThermoFisher Scientific, A32959) and PMSF (Cell Signaling Technology, #8553). Tissues were homogenized with a Bead Ruptor Elite at a speed of 5 m/sec for 25 seconds and centrifuged at 12,000 rpm for 3 min at 4° C. Milling and centrifugation steps were performed two additional times before transferring supernatant to UltraFree 0.45 μm 0.5 mL filter columns (Millipore Sigma, #UFC30HV) and centrifuging at 12,000 rpm for 1 min. Flow through lysate was quantified by BCA assay, diluted with 1 volume of RIPA lysis buffer, and mixed with Laemmli sample buffer. Lysates were boiled at 95° C. for 5 min and 30 μg of protein was loaded in 4-20% Criterion TGX Precast Midi Protein Gels (BioRad, #5671095). Protein was transferred to PVDF membranes by Trans-Blot Turbo system (Bio-Rad) and probed with Actin (Signma, #A2228) and SMARCA2 (Cell Signaling Technology, #11966) primary antibodies at a 1:1000 dilution and IRDye 800CW or IRDye 680RD secondary antibodies (LICOR, antibody, #926-68070) in iBind automated western system (ThermoFisher Scientific). The stained blots were scanned by LiCOR Odyssey CLx imaging system to acquire integrated intensities at 700 nm and 800 nm channel and analyzed using Image Studio software v5.2.
(Immunoblotting shows a protein as a band on a membrane.)

[9] abbreviates: as printed in text: Formula (I) 200 mg/kg s.c. Q3D, docetaxel 5-20 mg/kg i.v. QW, combination Formula (I) 100 mg/kg s.c. Q3D + docetaxel 5-20 mg/kg i.v. QW.
The mark [10] stands for this setting: Formula (I) 100 mg/kg s.c. Q3D, docetaxel 5/10/20 mg/kg QW, combination 200 + 5/10/20 mg/kg Q3D + QW.
[11] abbreviates: day 28, Formula (I) 100 mg/kg s.c. Q3D, docetaxel 5/10/20 mg/kg QW, combination 200 + 5/10/20 mg/kg Q3D + QW.
Setting [12] is: Formula (I) 100 mg/kg s.c. Q3D, docetaxel 10/5 mg/kg i.v. QW.

T1 sequence (P51531 whole entry): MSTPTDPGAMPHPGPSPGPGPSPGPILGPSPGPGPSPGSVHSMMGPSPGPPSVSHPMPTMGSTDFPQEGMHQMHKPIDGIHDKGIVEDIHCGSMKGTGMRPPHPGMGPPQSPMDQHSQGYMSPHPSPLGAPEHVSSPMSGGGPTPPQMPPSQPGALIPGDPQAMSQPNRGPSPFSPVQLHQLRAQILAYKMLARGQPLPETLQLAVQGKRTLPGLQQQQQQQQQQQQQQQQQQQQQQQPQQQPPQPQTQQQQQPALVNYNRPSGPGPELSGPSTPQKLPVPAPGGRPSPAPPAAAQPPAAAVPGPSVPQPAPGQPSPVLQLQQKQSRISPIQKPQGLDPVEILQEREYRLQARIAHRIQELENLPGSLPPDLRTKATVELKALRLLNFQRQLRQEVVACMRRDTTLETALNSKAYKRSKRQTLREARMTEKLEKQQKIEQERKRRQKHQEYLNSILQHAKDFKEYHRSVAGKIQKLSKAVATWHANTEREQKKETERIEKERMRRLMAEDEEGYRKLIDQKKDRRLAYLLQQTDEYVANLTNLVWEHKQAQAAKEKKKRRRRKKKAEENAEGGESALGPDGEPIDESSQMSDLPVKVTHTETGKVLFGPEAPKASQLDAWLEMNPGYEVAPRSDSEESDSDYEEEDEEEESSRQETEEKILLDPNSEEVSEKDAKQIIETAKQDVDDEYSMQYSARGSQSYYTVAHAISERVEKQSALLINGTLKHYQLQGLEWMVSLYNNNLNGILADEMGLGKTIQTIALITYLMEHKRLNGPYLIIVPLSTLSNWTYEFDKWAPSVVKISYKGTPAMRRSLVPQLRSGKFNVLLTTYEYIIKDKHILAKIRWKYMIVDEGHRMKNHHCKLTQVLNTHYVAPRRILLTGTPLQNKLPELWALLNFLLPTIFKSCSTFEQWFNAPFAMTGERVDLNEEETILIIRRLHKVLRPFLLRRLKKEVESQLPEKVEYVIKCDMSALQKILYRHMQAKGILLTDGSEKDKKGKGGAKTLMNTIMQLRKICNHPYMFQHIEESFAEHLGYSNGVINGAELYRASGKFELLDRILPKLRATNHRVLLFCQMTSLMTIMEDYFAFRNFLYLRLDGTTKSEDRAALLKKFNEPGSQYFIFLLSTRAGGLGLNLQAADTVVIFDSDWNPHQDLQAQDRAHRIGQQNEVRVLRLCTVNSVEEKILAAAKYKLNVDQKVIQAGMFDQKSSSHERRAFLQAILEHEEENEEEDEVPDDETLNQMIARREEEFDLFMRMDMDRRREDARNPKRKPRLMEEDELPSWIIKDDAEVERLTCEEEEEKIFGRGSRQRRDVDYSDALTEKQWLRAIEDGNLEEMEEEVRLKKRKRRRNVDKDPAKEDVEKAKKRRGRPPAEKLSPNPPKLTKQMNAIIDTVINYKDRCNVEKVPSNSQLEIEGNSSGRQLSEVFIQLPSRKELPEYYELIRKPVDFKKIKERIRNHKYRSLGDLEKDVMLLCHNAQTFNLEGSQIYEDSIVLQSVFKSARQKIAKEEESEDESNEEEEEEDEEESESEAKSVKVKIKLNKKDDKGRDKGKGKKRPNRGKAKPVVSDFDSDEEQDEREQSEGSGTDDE

On to `Cc1ncsc1-c1ccc([C@H](C)NC(=O)[C@@H]2C[C@@H](O)CN2C(=O)[C@@H](c2cc(O[C@@H](C)CN3CC[C@@H](N4CCN5c6cc(-c7ccccc7O)nnc6NC[C@H]5C4)C3)no2)C(C)C)cc1` [Formula (I)], for which the “tolerability (morbidity, body weight)” value in data set [1] (Formula (I) s.c. Q3D, docetaxel 5-20 mg/kg i.v. QW, combination) is “well tolerated”; in data set [5] (Formula (I) 100 mg/kg s.c. Q3D, docetaxel 5/10 mg/kg i.v. QW, combination), “well tolerated”; in data set [7] (Formula (I) 100 mg/kg s.c. Q3D, docetaxel 10/5 mg/kg i.v. QW, combination of both, one Formula (I) dosing holiday on day 12 in combination) it was “well tolerated”; in data set [7] (single agents: Formula (I) 50 or 75 mg/kg i.v. QW, nab-paclitaxel 30 mg/kg i.v. Q3W), “well tolerated”. Also, the “TGI (tumor growth inhibition vs vehicle)” value is on record as 32% in data set [1] (setting [9]), 31.6% (day in data set [1] (setting [11]) and 27.2% (day in data set [5]. For the same molecule, the Tumor size was 1,785 ± 221 mm^3 in data set [1] (setting [10]), 1,535 ± 174 mm^3 in data set [5] and 590.46 ± 102.37 mm^3 in data set [7] (setting [12]). In addition, the cell cycle arrest result in data set [2] is listed as “induced G1 cell cycle arrest”; in data set [3] it was “dose dependent G1 arrest signal”. In addition, in data set [4], the “Gene Set Enrichment Analysis: E2F targets and G2/M pathways” value was “downregulating E2F targets and G2/M pathways”. In data set [5] (Formula (I) at efficacious dosing regimens), the “growth of SMARCA4 WT Calu-6 lung tumor xenografts” value was “did not inhibit the growth”. The “G1 cell cycle arrest” value in data set [6] is “not in SMARCA4 wild-type cell lines”. In addition, the “tumor SMARCA2 protein levels” value in data set [8] is reported as “complete reduction”. Moreover, the “tumor SMARCA2 protein levels relative to vehicle treated mice” value in data set [8] is recorded as “significantly decreased; also recorded: abolished”.

Regarding `CC(=O)O[C@@]12CO[C@@H]1C[C@H](O)[C@@]1(C)C(=O)[C@H](O)C3=C(C)[C@@H](OC(=O)[C@H](O)[C@@H](NC(=O)OC(C)(C)C)c4ccccc4)C[C@@](O)([C@@H](OC(=O)c4ccccc4)[C@H]21)C3(C)C` [Docetaxel, reference compound], the “TGI (tumor growth inhibition vs vehicle)” value is 13% in data set [1] (setting [9]); 13.3% (day in data set [1] (setting [11]); 37.6% (day in data set [5]; 55.0% (day in data set [7] (setting [12]); 55% in data set [7] (Formula (I) 100 mg/kg s.c. Q3D, docetaxel 10/5 mg/kg i.v. QW, listed as docetaxel). In addition, the Tumor size in data set [1] (setting [10]) is listed as 2,223 ± 300 mm^3; in data set [5], 1,338 ± 132 mm^3; in data set [7] (setting [12]), 971.86 ± 127.82 mm^3. Also, the cell cycle arrest result in data set [2] is reported as “induced G2/M arrest”; in data set [3], “dose dependent G2/M arrest signal”. Besides, the “Gene Set Enrichment Analysis: E2F targets and G2/M pathways” value in data set [4] is “positive enrichment of E2F targets and G2/M pathways”. The “tumor SMARCA2 protein levels” value in data set [8] is recorded as “no effect”. Further, the “tumor SMARCA2 protein levels relative to vehicle treated mice” value in data set [8] was “no effect; also recorded: unaffected”.
